Data as given in US20190328845A1, “IN VIVO SYNTHESIS OF ELASTIC FIBER” (ALLERGAN PHARMACEUTICALS INTERNATIONAL LIMITED, priority 2011, published 2019).

Experiments:
[1] = test system: human skin fibroblasts; assay: In vitro assay system for elastic fiber synthesis, human skin fibroblasts; format: cell-based; conditions: 7 days
Protocol: Cells were cultured in Dulbecco's Modified Eagle Medium High Glucose (DMEM; Invitrogen) containing 10% fetal bovine serum (FBS; Invitrogen) and 1% (v/v) penicillin/streptomycin (Invitrogen). Media were changed every 2-3 days. Cells were incubated at 37° C. and 5% CO2. To assess the capacity of cells to form elastin fibers 1×10^5 cells were seeded onto glass coverslips in 12 well culture plates. Ten to 17 days post-seeding full-length tropoelastin (Elastagen), or an alternative elastin-derived protein, in PBS was filter-sterilized and added to the cell cultures. Alternative elastin-derived proteins included human skin elastin peptides (Elastin Products Company; HSP72), a C-terminal tropoelastin deletion construct ARKRK (Weiss lab) and a C-terminal tropoelastin substitution construct containing RGDS (Weiss lab). Fiber formation was also assessed in the presence of 50 μM blebbistatin (Sigma). For experiments assessing the effect of repeated tropoelastin additions the protein was added 10, 17 and 24 days post-seeding. Cell matrix thickness was determined by averaging the number of 0.41 μm z slices required to image from the uppermost nuclei to the bottom of the sample in ten randomly chosen fields of view.
At set time points after tropoelastin addition, cells were fixed with either 3% (w/v) formaldehyde or 4% (w/v) paraformaldehyde for 20 min and quenched with 0.2 M glycine. […]

[2] = test system: Dermal human fibroblasts; assay: Elastic fiber formation in the presence of lysyl oxidase inhibitor; format: cell-based; conditions: BAPN added at various time points relative to tropoelastin addition; 72 hours culture
Protocol: The effect of the lysyl oxidase inhibitor BAPN on elastic fiber formation in this system was studied.
Dermal human fibroblasts were grown for 12 days prior to tropoelastin addition as described. Cells were cultured for a further 72 hours after tropoelastin addition. BAPN was added at various time points relative to tropoelastin addition. Samples were stained for elastin and nuclei as described above.

Compound: Cc1ccc2c(c1)C(=O)C1(O)CCN(c3ccccc3)C1=N2 (stereo not drawn) [blebbistatin]
- elastin fiber formation in the presence of blebbistatin ([1]; 50 μM blebbistatin added at the same time as 125 μg/ml tropoelastin, neonatal fibroblasts): substantially impaired

Compound: +RGDS
- elastin network formation ([1]; 125 μg/ml protein added to primary human neonatal skin fibroblasts (NHF8909) 12 days post-seeding): Spherule rather than fiber deposition

Compound: N#CCCN [BAPN]
- elastic fiber formation in the presence of BAPN [2]: prevents fiber formation
